# What was measured:
# Parameters in all cases: species or system human
# [1] = Effect of pH of D-xylose solutions on hair relaxed with 2.0% sodium hydroxide (Example 3); conditions: for % Reversion / % Straightening: 2.0% NaOH + 5% D-Xylose, flat iron 1 min 130° C., 24 h at 90% RH
# Description: [formula] The percent reversion (“% reversion”)=100%−(% straightening) Virgin African-American (kinky) hair was processed with 2.0% sodium hydroxide for 20 min at room. Next, the sodium hydroxide solution was washed off, the swatch was profusely rinsed with tepid water, and the treatment solution was applied for 10 min at 45° C. The treatment solutions included: buffer solution, pH 2.0; buffer solution, pH 6.0; buffer solution, pH 10.0; 5% D-xylose, pH 2.0; 5% D-xylose, pH 6.5; and 5% D-xylose, pH 10. The solutions were buffered using phosphoric acid and sodium hydroxide. Next, the swatch was briefly rinsed to remove an excess of the treatment solution from the hair surface, blow-dried, and heat was applied in the form of a flat iron for 1 min. (130° C.). The heat-treated swatch was rinsed with tepid water, air-dried at 50% RH (25° C.), and maintained for 24 h at 90% RH (25° C.). The percent hair straightening was determined as in Example 1.
# [2] = Percent straightening / reversion of hair relaxed with various concentrations of sodium hydroxide, D-xylose post-treatment and heat (Example 2); conditions: for % Reversion / % Straightening: flat iron 1 min 130° C., 24 h at 90% RH
# Description: [formula] The percent reversion (“% reversion”)=100%−(% straightening) Virgin African-American (kinky) hair was processed with different concentrations of sodium hydroxide for 20 min at room temperature: 1.0%, 1.5%, 2.0%, and 2.5% NaOH, respectively. Next, the sodium hydroxide solution was washed off, the swatch was profusely rinsed with tepid water, and the treatment solution was applied for 5 min at room temperature. The treatment solutions included water and 5% D-xylose. Next, the swatch was briefly rinsed to remove an excess of the treatment solution from the hair surface, blow-dried, and heat was applied in the form of a flat iron for 1 min (130° C.). The heat-treated swatch was rinsed with tepid water, air-dried at 50% RH (25° C.), and maintained for 24 h at 90% RH (25° C.). The percent hair straightening was determined as in Example 1.
# [3] = Effect of D-xylose on hair relaxed with a commercial thioglycolate relaxer (Example 5); conditions: for % Reversion / % Straightening: flat iron 30 sec 175° C., 1 h at 100% RH
# Description: [formula] The percent reversion (“% reversion”)=100%−(% straightening) Virgin African-American (kinky) hair was processed with a commercial thioglycolate cream relaxer as follows. The thioglycolate cream relaxer was applied to a swatch of kinky hair for 15 min at room temperature (reduced hair). Next, the thioglycolate cream was washed off, the swatch was profusely rinsed with tepid water, and a hydrogen peroxide cream was applied for 5 min. The treatment solutions included: water and 5% D-xylose. The treatment solutions were applied either between the rinsing of the thioglycolate cream relaxer and the application of the hydrogen peroxide cream, or after the application of the hydrogen peroxide cream, respectively. The treatment solutions was applied for 5 min at room temperature. Next, the swatch was briefly rinsed to remove an excess of the treatment solution from the hair surface, blow-dried, and heat was applied in the form of a flat iron for 30 sec (175° C.). The heat-treated swatch was rinsed with tepid water, air-dried at 50% RH (25° C.), and maintained for 1 h at 100% RH (25° C.). The percent hair straightening was determined as in Example 1.
# [4] = Percent straightening / reversion of hair relaxed with 2.5% sodium hydroxide, D-xylose post-treatment and heat (Example 1); conditions: for % Reversion / % Straightening: flat iron five strokes 130° C., 24 at 90% RH (25° C.)
# Description: Virgin African-American (kinky) hair was processed and 2.5% sodium hydroxide for 20 min at room temperature. Next, the sodium hydroxide solution was washed off, the swatch was profusely rinsed with tepid water, and the treatment solution was applied for 5 min at room temperature. The treatment solutions included: water; 1% D-xylose; and 5% D-xylose. Next, the swatch was briefly rinsed to remove an excess of the treatment solution from the hair surface, blow-dried, and heat was applied in the form of five strokes with a flat iron (130° C.). The heat-treated swatch was rinsed with tepid water, air-dried at 50% RH (25° C.), and maintained for 24 at 90% RH (25° C.). The percent hair straightening (“% straightening”) was determined as follows: [formula] The percent reversion (“% reversion”)=100%−(% straightening)
# [5] = Effect of D-xylose concentration on hair relaxed with a commercial alkali relaxer (Example 4); conditions: for % Reversion / % Straightening: flat iron 1 min 175° C., 1 h at 100% RH
# Description: [formula] The percent reversion (“% reversion”)=100%−(% straightening) Virgin African-American (kinky) hair was processed with an alkali relaxer as follows. The commercial cream relaxer was applied to a swatch of hair for 10 min at room temperature. Next, the cream was washed off, the swatch was profusely rinsed with tepid water, and the treatment solution was applied for 5 min. The treatment solutions included water; 1% D-xylose; 3% D-xylose; and 5% D-xylose. Next, the swatch was briefly rinsed to remove an excess of the treatment solution from the hair surface, blow-dried, and heat was applied in the form of a flat iron for 1 min (175° C.). The heat-treated swatch was rinsed with tepid water, air-dried at 50% RH (25° C.), and maintained for 1 h at 100% RH (25° C.). The percent hair straightening was determined as in Example 1.
# [6] = thioglycolate reduced hair + 5% D-Xylose, then hydrogen peroxide
# [7] = thioglycolate reduced hair + hydrogen peroxide, then 5% D-Xylose
# [8] = 2.5% NaOH 20 min + 1% D-Xylose 5 min
# [9] = 2.5% NaOH 20 min + 5% D-Xylose 5 min
# [10] = commercial alkali cream relaxer 10 min + 1% D-Xylose 5 min
# [11] = commercial alkali cream relaxer 10 min + 3% D-Xylose 5 min
# [12] = commercial alkali cream relaxer 10 min + 5% D-Xylose 5 min
compound,measurement,setting,value
"O=C[C@H](O)[C@@H](O)[C@H](O)CO [D-Xylose, D-xylose]",% Reversion,"[1]; pH 2.0, 10 min at 45° C.",20.0%
same,% Straightening,"[1]; pH 2.0, 10 min at 45° C.",80.0%
same,% Reversion,"[1]; pH 6.5, 10 min at 45° C.",10.0%
same,% Straightening,"[1]; pH 6.5, 10 min at 45° C.",90.0%
same,% Reversion,"[1]; pH 10.0, 10 min at 45° C.",0.00%
same,% Straightening,"[1]; pH 10.0, 10 min at 45° C.",100%
same,reversion of relaxed hair (in words),[1]; post-treatment with a D-Xylose solution vs buffer solution at various pH values,prevented reversion of the relaxed hair better than post-treatment with a buffer solution
same,% Reversion,[2]; 1.0% NaOH + 5% D-Xylose,42.9%
same,% Straightening,[2]; 1.0% NaOH + 5% D-Xylose,57.1%
same,% Reversion,[2]; 1.5% NaOH + 5% D-Xylose,21.4%
same,% Straightening,[2]; 1.5% NaOH + 5% D-Xylose,78.6%
same,% Reversion,[2]; 2.0% NaOH + 5% D-Xylose,0%
same,% Straightening,[2]; 2.0% NaOH + 5% D-Xylose,100%
same,% Reversion,[2]; 2.5% NaOH + 5% D-Xylose,0%
same,% Straightening,[2]; 2.5% NaOH + 5% D-Xylose,100%
same,curl reversion in relaxed kinky hair (in words),"[2]; post-treatment with a D-xylose solution vs water, 1.0-2.5% NaOH",prevented curl reversion in the relaxed kinky hair better than post-treatment with water
same,reversion of relaxed hair (in words),"[3]; post-treatment with a D-xylose solution, thioglycolate hair relaxer",prevented reversion
same,% Reversion,[3]; [6],0.00%
same,% Straightening,[3]; [6],100%
same,% Reversion,[3]; [7],14.0%
same,% Straightening,[3]; [7],86.0%
same,% Reversion,[4]; [8],7.2%
same,% Straightening,[4]; [8],92.8%
same,% Reversion,[4]; [9],0%
same,% Straightening,[4]; [9],100%
same,curl reversion in relaxed kinky hair (in words),"[4]; post-treatment with a D-xylose solution, hair relaxed with 2.5% NaOH",prevented curl reversion
same,% Reversion,[5]; [10],30.9%
same,% Straightening,[5]; [10],69.1%
same,% Reversion,[5]; [11],24.0%
same,% Straightening,[5]; [11],76.0%
same,% Reversion,[5]; [12],22.0%
same,% Straightening,[5]; [12],78.0%
same,reversion of relaxed hair (in words),"[5]; post-treatment with various concentrations of D-xylose vs water, commercial alkali relaxer",prevented reversion of the relaxed hair

# — patent US20090320869A1, “METHODS FOR PREVENTING REVERSION OF RELAXED KERATINOUS FIBERS AND FOR RELAXING KERATINOUS FIBERS” (L'Oreal, S.A.,, priority 2003, published 2009)
